This is an account of results in ChEMBL document CHEMBL5338803, “Novel Medicinal Chemistry Strategies Targeting CDK5 for Drug Discovery” (J Med Chem, 2023).

For experiment [1], the system named is SH-SY5Y. As to the kind of experiment: Neuroprotective activity against amyloid beta (25 to 35)-induced cell damage in human SH-SY5Y cells assessed as survival rate at 10 uM measured after 72 hrs by MTT assay. The settings on record: read-out: Survival. The class given is functional.
In experiment [2] the target is Glycogen synthase kinase-3 beta (Homo sapiens, UniProt P49841). The experiment can be described thus: Inhibition of GSK3beta (unknown origin).
The target in experiment [3] is Cyclin-dependent kinase 5 (Homo sapiens) (UniProt Q00535). As to the kind of experiment: Inhibition of CDK5 (unknown origin) at 10 uM relative to control.
Experiment [4] concerns the target Dual specificity tyrosine-phosphorylation-regulated kinase 1A (Homo sapiens) (UniProt Q13627). The experiment can be described thus: Inhibition of DYRK1A (unknown origin) at 10 uM relative to control.
Experiment [5] in a line: Selectivity index, ratio of IC50 for CDK2/cyclin A (unknown origin) to IC50 for CDK5/p25 (unknown origin).
Experiment [6] concerns the target Cyclin-dependent kinase 5/CDK5 activator 1 (Homo sapiens, UniProt Q00535). The experiment can be described thus: Inhibition of CDK5/p25 (unknown origin). In kind it is protein-complex assay.
For experiment [7], the target named is CDK2/Cyclin A1 (Homo sapiens, UniProt P24941). As to the kind of experiment: Inhibition of CDK2/cyclin A (unknown origin). The class given is protein-complex assay.
The nature of experiment [8]: Selectivity ratio of IC50 for CDK5 (unknown origin) to IC50 for CDK2 (unknown origin).
Experiment [9] deals with Cyclin-dependent kinase 5 (Homo sapiens) (UniProt Q00535). The experiment can be described thus: Binding affinity to CDK5 (unknown origin) assessed as change in gibbs free energy.

pIC50: −log10 of the molar value.

Sequence of Cyclin-dependent kinase 5/CDK5 activator 1 (Q00535 whole entry): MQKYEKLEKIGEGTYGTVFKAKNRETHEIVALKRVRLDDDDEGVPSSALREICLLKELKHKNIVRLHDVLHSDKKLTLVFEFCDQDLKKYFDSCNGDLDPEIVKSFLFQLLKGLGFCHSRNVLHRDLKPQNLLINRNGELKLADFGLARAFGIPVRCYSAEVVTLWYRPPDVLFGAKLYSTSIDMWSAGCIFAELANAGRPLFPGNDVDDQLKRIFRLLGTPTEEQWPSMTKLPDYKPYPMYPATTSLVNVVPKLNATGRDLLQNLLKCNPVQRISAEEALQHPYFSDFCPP
Sequence of Cyclin-dependent kinase 5/CDK5 activator 1 (Q15078 whole entry, further chain): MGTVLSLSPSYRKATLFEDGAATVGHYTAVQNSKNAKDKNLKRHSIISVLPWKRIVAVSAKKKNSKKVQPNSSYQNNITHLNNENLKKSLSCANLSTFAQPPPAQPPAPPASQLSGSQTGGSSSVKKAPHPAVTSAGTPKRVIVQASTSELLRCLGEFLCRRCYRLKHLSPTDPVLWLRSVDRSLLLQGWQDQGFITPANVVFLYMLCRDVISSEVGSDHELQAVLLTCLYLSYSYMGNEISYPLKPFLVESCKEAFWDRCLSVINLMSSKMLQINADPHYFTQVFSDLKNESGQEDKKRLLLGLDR
Sequence of Cyclin-dependent kinase 5 (Homo sapiens) (Q00535 whole entry, looked up): as the sequence (Q00535 whole entry) above
Sequence of Glycogen synthase kinase-3 beta (P49841 whole entry): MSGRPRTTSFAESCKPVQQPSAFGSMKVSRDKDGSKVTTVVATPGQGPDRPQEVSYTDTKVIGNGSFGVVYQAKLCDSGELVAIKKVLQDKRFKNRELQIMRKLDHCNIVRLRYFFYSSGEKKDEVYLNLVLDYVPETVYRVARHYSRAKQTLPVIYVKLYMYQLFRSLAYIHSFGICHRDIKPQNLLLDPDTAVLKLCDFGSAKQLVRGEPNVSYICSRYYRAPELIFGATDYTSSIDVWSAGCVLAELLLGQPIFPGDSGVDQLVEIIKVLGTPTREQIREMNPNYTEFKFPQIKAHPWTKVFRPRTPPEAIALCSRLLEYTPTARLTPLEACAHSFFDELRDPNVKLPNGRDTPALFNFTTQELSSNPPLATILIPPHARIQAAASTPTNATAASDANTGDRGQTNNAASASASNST

For the compound `NC(=O)CN1C(=O)C(O)(CC(=O)c2ccc3ccccc3c2)c2ccccc21` (centres undefined), the viability at 10 µM in [1] was found to be 82.6%.

In experiment [2], `O=C(Nc1cc(Br)ccn1)Nc1cccc2c1C1CCCCN1C2=O` (centres undefined) showed a pIC50 of 7.66.

Regarding `NS(=O)(=O)c1cccc(Nc2ncc3c(n2)CCCC3)c1`, the results for the inhibition in experiment [3] and in [4] were 98% and 95%, respectively.

On to `O=C(Nc1csc(Cc2c(Cl)cccc2Cl)n1)NN1CCOCC1`, for which the Ratio IC50 in experiment [5] stood at 10.

`C[C@@]12CCC[C@H]1[C@@H]1CC[C@H]3C[C@H](N)CC[C@]3(C)[C@H]1CC2` gave a pIC50 in experiment [6] of 5.22.

With `COc1ccc(OCC(=O)Nc2cccc(-c3nc4ccccc4c(=O)o3)c2)cc1`, the viability at 10 µM in experiment [1] was 82.9%.

In experiment [6], `C[C@]12CC[C@H]3[C@@H](CCC4=CC(=O)CC[C@@]43C)[C@@H]1CC[C@@H]2C(=O)COS(=O)(=O)c1ccc(Br)cc1` had a pIC50 of 5.22.

In [7], `CN1CCC(N(CC(=O)O)c2ccc3cnc(Nc4ccc(-n5ccc(CO)n5)cc4F)cc3n2)CC1` showed a pIC50 of 6.35. Also, the Ratio IC50 in [8] is 100.

On to `O=c1oc2cc(O)cc(O)c2c2ccccc12`, for which the inhibition in experiment [3] was 62%; in experiment [4], 92.2%.

`O=C(NOc1ccccc1)Nc1csc(Cc2c(Cl)cccc2Cl)n1` had a negative-log IC50 (pIC50) in experiment [7] below 4.00. Besides, in experiment [8], the Ratio IC50 came to 100.

As for `COc1ccc(CC(=O)Cc2ccn([C@H]3C[C@@H](C(N)=O)C3)c2)cc1`, the pIC50 in experiment [7] was 7.20; in [6], 8.05. For the same compound, the deltaG in experiment [9] was -96.1 kJ/mol.

`CN1C(=O)COc2ccc(-c3nn(Cc4ccccc4)c(=O)c4ccccc34)cc21`: the viability at 10 µM in experiment [1] was 80.1%.

`O=C(C1=C(O)C(=O)N(CCc2c[nH]c3ccccc23)C1c1cccnc1)c1ccc(Cl)cc1` (centres undefined): in experiment [1], the viability at 10 µM came to 82.8%.

The pIC50 is the IC50 on a negative log10 scale, so that one unit is a factor of ten. What is called inhibition is the share of the control response that was lost under treatment. A low value points to a weak effect.
